Drawing on PubChem BioAssay (NCI), this text covers TGI and GI50 for nine compounds.

Some test systems named below: 786-0 renal; CAKI-1 renal; HCC-2998 colon; HCT-15 colon; KM12 colon; MOLT-4 leukemia; NCI-H460 lung; RPMI-8226 leukemia; SF-539 CNS; UACC-62 melanoma.
Test in all cases: NCI-60 cell line screen, 48 h

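Each compound was tested at five concentrations against cells in 96-well plates for 48 hours. GI50 marks 50% less growth. Definition used: TGI = concentration required for complete inhibition of growth.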 A value given as a limit tells only on which side of the number the result lay.

Take `c1cnc2c(c1)-n1cccc1C1(CCSCC1)NN2`: the TGI in the assay with 786-0 renal, in the assay with CAKI-1 renal, with HCC-2998 colon, in the assay on HCT-15 colon, in the assay on KM12 colon and with MOLT-4 leukemia was above 100 µM throughout. Besides, the TGI with NCI-H460 lung, in the assay on RPMI-8226 leukemia and in the assay with SF-539 CNS was above 100 µM each time.

For the compound `CN1CCN(Cc2ccc(NC(=O)c3cncc(C#Cc4cnc(N)c5ccc(F)cc45)c3)cc2C(F)(F)F)CC1`, the GI50 in the assay with 786-0 renal is 3.95 µM; with CAKI-1 renal, 1.1 µM; with HCC-2998 colon, 1.7 µM; in the assay on HCT-15 colon, 1.03 µM; with KM12 colon it was 0.0282 µM; with MOLT-4 leukemia it was 0.974 µM. Further, the GI50 with NCI-H460 lung was 1.08 µM; with RPMI-8226 leukemia, 1.27 µM; in the assay with SF-539 CNS it was 2.03 µM; in the assay on UACC-62 melanoma, 4 µM. For the same compound, the TGI with 786-0 renal was determined as 9.99 µM; in the assay on CAKI-1 renal it was 4.57 µM; in the assay with HCC-2998 colon it was 5.98 µM; in the assay with HCT-15 colon, 4.62 µM; in the assay with KM12 colon, 4.63 µM; with MOLT-4 leukemia, 6.19 µM. In addition, the TGI with NCI-H460 lung turned out to be 8.95 µM; in the assay with RPMI-8226 leukemia it was 26.2 µM; with SF-539 CNS it was 6.13 µM; in the assay on UACC-62 melanoma, 8.48 µM.

With `COc1cc(-c2cc(=O)c3cc4c(cc3[nH]2)OCO4)cc(OC)c1OC`, the TGI with 786-0 renal, with CAKI-1 renal, with HCC-2998 colon, in the assay on HCT-15 colon, with KM12 colon and in the assay with MOLT-4 leukemia was above 100 µM throughout. In addition, the TGI with NCI-H460 lung, in the assay with RPMI-8226 leukemia, with SF-539 CNS and in the assay on UACC-62 melanoma was above 100 µM in each case.

As to `CCN(CC)c1ccc(N=Nc2ccc(-c3nc4cccnc4o3)cc2)cc1`, the TGI with 786-0 renal, with CAKI-1 renal, with HCC-2998 colon, in the assay with HCT-15 colon, in the assay with KM12 colon and in the assay with MOLT-4 leukemia was above 100 µM throughout. The TGI in the assay on RPMI-8226 leukemia, in the assay on SF-539 CNS and in the assay with UACC-62 melanoma was above 100 µM in each case.

As to `COC(=O)CCC/C=C\C[C@H]1C=CC(=O)/C1=C/C[C@@H](O)CCc1cccc(C(F)(F)F)c1`, the GI50 in the assay on 786-0 renal was 2.46 µM; in the assay on CAKI-1 renal, 3.89 µM; with HCC-2998 colon it was 1.83 µM; in the assay with HCT-15 colon it was 1.67 µM; in the assay on KM12 colon, 1.9 µM; in the assay on MOLT-4 leukemia, 2.29 µM. Moreover, the GI50 with NCI-H460 lung was 2.35 µM; with RPMI-8226 leukemia it was 2.85 µM; in the assay on SF-539 CNS it was 2.9 µM; in the assay with UACC-62 melanoma, 2.16 µM. For the same compound, the TGI in the assay with 786-0 renal was found to be 5.57 µM; in the assay with CAKI-1 renal, 14.7 µM; in the assay with HCC-2998 colon it was 3.35 µM; with HCT-15 colon, 4.18 µM; in the assay with KM12 colon, 4.23 µM; with MOLT-4 leukemia it was 6.46 µM. Besides, the TGI in the assay on NCI-H460 lung was determined as 5.57 µM; in the assay with RPMI-8226 leukemia, 14 µM; in the assay with SF-539 CNS, 9.24 µM; in the assay with UACC-62 melanoma it was 5.48 µM.

Take `CCCCNc1nc(NC(C)(C)C)nc(NC(C)(C)C)n1`: the GI50 in the assay on 786-0 renal was 30.7 µM; with CAKI-1 renal it was 5.55 µM; in the assay with HCC-2998 colon, 8.05 µM; in the assay on HCT-15 colon, 2.97 µM; in the assay on KM12 colon, 4.87 µM; in the assay on MOLT-4 leukemia it was 5.69 µM. Also, the GI50 with NCI-H460 lung is 5.13 µM; with RPMI-8226 leukemia, 1.4 µM; in the assay on SF-539 CNS, 16.9 µM; in the assay on UACC-62 melanoma it was 3.25 µM. For the same compound, the TGI with 786-0 renal, with CAKI-1 renal, in the assay on HCC-2998 colon, in the assay on HCT-15 colon, in the assay on KM12 colon and in the assay with MOLT-4 leukemia was above 100 µM in each case. Further, the TGI in the assay with NCI-H460 lung, with RPMI-8226 leukemia, with SF-539 CNS and in the assay on UACC-62 melanoma was above 100 µM throughout.

For `Clc1nc(Oc2ccccc2)nc(-c2cn(-c3ccccc3)c3ccccc23)n1`, the GI50 with 786-0 renal was 18.6 µM; with CAKI-1 renal it was 5.69 µM; in the assay with HCC-2998 colon, 13.8 µM; in the assay with HCT-15 colon, 5.38 µM; in the assay with KM12 colon, 7.51 µM; in the assay on MOLT-4 leukemia, 0.79 µM. Moreover, the GI50 in the assay on NCI-H460 lung is 21.4 µM; in the assay with RPMI-8226 leukemia it was 3.29 µM; with SF-539 CNS, 16.1 µM; in the assay with UACC-62 melanoma it was 13.2 µM. In addition, the TGI in the assay on 786-0 renal is 35.6 µM; in the assay on CAKI-1 renal, 12.9 µM; in the assay on HCC-2998 colon it was 27.3 µM; in the assay with HCT-15 colon, 18 µM; in the assay on KM12 colon it was 19.9 µM; with MOLT-4 leukemia, 21.9 µM. Also, the TGI is above 71.7 µM with NCI-H460 lung, 21.5 µM in the assay on RPMI-8226 leukemia, 30 µM with SF-539 CNS and 26.6 µM with UACC-62 melanoma.

For `O=[N+]([O-])c1c(/C=N/Nc2ccccc2)oc(-c2ccc3c(c2)OCO3)c1-c1ccc2c(c1)OCO2`, the TGI in the assay with 786-0 renal is above 100 µM; in the assay with CAKI-1 renal it was above 100 µM; with HCC-2998 colon it was 34.3 µM; in the assay with RPMI-8226 leukemia, 24.2 µM; in the assay with SF-539 CNS, above 100 µM; in the assay on UACC-62 melanoma, above 100 µM.

In the case of `CCOC(=O)[C@@H](C)C[C@H](Cc1ccccc1)NC(=O)c1csc([C@@H](C[C@H](C(C)C)N(C)C(=O)[C@@H](NC(=O)[C@H]2C[C@H](O[Si](C)(C)C(C)(C)C)CCN2C)C(C)C)OC(C)=O)n1`, the GI50 with 786-0 renal is 0.286 µM; in the assay on CAKI-1 renal it was 0.351 µM; in the assay with HCC-2998 colon it was 0.182 µM; in the assay with HCT-15 colon, 0.427 µM; with KM12 colon, 0.241 µM; in the assay with MOLT-4 leukemia, 0.354 µM. Besides, the GI50 in the assay with NCI-H460 lung was 0.188 µM; with RPMI-8226 leukemia it was 0.275 µM; in the assay with SF-539 CNS, 0.21 µM; in the assay with UACC-62 melanoma, 0.0545 µM. Also, the TGI with 786-0 renal is above 4.36 µM; in the assay on CAKI-1 renal, above 8.33 µM; in the assay with HCC-2998 colon, 0.69 µM; in the assay with HCT-15 colon, above 5.02 µM; with KM12 colon it was above 8.33 µM; in the assay with MOLT-4 leukemia it was above 8.33 µM. Further, the TGI in the assay on NCI-H460 lung worked out at 1.34 µM; in the assay on RPMI-8226 leukemia it was 2.25 µM; in the assay on SF-539 CNS it was 0.625 µM; in the assay on UACC-62 melanoma, 3.58 µM.
